According to PMC6199744, “Development of Chemical Proteomics for the Folateome and Analysis of the Kinetoplastid Folateome” (ACS Infectious Diseases, 2018):
Like-named read-outs stand apart in the source and are kept apart here.

Legend:
Type in all cases: binding
[1] = target: T1, HeLa cell extract proteins (Homo sapiens, UniProt O00330)
T1 construct: endogenous in cells; host or cells: HeLa cell extract
T1 sequence (O00330 54-501): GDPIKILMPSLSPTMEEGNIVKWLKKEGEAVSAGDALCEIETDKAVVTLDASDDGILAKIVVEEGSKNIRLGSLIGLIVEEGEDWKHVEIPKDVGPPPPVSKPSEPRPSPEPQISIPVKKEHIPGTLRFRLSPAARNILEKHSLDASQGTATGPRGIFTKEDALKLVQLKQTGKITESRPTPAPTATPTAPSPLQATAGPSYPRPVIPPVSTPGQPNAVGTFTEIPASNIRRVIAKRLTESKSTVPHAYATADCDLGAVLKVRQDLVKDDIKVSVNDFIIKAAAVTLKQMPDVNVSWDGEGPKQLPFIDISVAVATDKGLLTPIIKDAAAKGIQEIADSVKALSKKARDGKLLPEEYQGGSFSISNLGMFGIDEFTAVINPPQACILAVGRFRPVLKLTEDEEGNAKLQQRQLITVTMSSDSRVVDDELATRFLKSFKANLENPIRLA

[2] = target: T2, HeLa cell extract proteins (Homo sapiens, UniProt O43324)
T2 construct: endogenous in cells; host or cells: HeLa cell extract
T2 sequence (O43324 1-174): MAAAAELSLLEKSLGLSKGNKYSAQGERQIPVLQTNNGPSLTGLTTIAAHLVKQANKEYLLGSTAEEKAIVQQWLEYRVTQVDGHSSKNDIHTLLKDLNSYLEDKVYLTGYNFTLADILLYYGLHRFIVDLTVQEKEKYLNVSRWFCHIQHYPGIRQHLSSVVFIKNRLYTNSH

[3] = target: T3, HeLa cell extract proteins (Homo sapiens, UniProt P26641)
T3 construct: endogenous in cells; host or cells: HeLa cell extract
T3 sequence (P26641 whole entry): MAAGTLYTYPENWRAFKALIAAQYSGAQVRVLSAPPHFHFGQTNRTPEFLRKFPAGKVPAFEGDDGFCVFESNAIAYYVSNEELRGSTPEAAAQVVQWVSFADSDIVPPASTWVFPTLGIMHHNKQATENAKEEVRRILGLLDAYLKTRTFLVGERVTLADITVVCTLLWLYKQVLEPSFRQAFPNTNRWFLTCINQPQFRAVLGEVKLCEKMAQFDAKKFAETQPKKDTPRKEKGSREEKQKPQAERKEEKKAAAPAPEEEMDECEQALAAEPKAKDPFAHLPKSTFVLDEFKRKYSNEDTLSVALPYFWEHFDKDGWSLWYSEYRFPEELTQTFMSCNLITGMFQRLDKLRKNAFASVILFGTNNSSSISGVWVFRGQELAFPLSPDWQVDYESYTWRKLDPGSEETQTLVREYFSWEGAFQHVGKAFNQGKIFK

[4] = target: T4, HeLa cell extract proteins (Homo sapiens, UniProt P33991)
T4 construct: endogenous in cells; host or cells: HeLa cell extract
T4 sequence (P33991 1-863): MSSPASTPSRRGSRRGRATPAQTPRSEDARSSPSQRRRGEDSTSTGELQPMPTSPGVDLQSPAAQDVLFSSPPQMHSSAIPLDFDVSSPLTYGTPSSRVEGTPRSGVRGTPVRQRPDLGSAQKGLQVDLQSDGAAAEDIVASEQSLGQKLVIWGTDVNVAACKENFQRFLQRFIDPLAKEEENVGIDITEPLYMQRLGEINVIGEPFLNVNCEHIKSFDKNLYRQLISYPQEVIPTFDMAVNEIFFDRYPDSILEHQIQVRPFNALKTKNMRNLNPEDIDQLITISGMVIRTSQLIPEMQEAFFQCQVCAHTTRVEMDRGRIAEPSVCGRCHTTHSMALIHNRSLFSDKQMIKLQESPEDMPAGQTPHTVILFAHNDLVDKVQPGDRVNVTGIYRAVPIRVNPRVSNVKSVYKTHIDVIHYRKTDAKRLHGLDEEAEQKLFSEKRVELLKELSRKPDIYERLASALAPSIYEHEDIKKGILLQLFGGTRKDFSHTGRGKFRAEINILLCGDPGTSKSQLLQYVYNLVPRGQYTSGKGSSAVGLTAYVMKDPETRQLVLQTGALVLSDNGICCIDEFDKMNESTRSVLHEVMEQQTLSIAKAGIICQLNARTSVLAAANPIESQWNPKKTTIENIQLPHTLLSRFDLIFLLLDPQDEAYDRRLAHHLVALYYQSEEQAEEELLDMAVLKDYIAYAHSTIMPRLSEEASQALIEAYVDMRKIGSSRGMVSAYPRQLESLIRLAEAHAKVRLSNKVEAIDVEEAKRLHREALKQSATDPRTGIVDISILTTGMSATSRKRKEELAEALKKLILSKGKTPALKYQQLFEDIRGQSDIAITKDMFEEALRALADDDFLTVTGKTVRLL

[5] = target: T5, HeLa cell extract proteins (Homo sapiens, UniProt P63151)
T5 construct: endogenous in cells; host or cells: HeLa cell extract
T5 sequence (P63151 1-447): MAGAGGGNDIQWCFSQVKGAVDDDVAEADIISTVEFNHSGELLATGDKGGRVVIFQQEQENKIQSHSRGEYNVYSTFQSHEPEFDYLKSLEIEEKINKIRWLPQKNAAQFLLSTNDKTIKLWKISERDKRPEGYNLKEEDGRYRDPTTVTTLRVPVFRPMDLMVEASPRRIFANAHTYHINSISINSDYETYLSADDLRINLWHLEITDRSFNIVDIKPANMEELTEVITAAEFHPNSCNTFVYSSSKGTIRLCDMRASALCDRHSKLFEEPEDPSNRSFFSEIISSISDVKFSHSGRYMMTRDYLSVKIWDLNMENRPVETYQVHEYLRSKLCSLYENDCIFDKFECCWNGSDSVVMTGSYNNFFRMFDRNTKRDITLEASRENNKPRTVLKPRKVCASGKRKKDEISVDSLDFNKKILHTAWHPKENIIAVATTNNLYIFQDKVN

[6] = target: T6, HeLa cell extract proteins (Homo sapiens, UniProt Q01105)
T6 construct: endogenous in cells; host or cells: HeLa cell extract
T6 sequence (Q01105 whole entry): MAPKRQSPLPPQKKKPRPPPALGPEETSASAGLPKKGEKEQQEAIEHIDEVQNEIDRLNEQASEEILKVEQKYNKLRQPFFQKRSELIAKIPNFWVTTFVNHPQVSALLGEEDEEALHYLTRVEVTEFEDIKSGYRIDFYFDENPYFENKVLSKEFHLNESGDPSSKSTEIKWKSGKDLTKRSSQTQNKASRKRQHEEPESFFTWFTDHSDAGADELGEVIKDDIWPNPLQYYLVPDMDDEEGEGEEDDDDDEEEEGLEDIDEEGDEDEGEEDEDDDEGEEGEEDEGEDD

[7] = target: T7, HeLa cell extract proteins (Homo sapiens, UniProt Q13085)
T7 construct: endogenous in cells; host or cells: HeLa cell extract

[8] = target: T8, HeLa cell extract proteins (Homo sapiens, UniProt Q6P3X3)
T8 construct: endogenous in cells; host or cells: HeLa cell extract

[9] = target: T9, HeLa cell extract proteins (Homo sapiens, UniProt Q6UXN9)
T9 construct: endogenous in cells; host or cells: HeLa cell extract
T9 sequence (Q6UXN9 whole entry): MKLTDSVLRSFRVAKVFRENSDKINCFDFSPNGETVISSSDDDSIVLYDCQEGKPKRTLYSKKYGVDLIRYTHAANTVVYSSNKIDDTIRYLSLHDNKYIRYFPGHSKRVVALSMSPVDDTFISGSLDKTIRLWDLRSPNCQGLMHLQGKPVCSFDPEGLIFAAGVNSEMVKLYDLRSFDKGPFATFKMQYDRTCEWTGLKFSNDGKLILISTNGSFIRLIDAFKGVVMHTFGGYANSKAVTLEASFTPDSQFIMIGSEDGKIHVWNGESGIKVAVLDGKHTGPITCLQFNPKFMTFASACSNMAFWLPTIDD

[10] = target: T10, HeLa cell extract proteins (Homo sapiens, UniProt Q99460)
T10 construct: endogenous in cells; host or cells: HeLa cell extract
T10 sequence (Q99460 whole entry): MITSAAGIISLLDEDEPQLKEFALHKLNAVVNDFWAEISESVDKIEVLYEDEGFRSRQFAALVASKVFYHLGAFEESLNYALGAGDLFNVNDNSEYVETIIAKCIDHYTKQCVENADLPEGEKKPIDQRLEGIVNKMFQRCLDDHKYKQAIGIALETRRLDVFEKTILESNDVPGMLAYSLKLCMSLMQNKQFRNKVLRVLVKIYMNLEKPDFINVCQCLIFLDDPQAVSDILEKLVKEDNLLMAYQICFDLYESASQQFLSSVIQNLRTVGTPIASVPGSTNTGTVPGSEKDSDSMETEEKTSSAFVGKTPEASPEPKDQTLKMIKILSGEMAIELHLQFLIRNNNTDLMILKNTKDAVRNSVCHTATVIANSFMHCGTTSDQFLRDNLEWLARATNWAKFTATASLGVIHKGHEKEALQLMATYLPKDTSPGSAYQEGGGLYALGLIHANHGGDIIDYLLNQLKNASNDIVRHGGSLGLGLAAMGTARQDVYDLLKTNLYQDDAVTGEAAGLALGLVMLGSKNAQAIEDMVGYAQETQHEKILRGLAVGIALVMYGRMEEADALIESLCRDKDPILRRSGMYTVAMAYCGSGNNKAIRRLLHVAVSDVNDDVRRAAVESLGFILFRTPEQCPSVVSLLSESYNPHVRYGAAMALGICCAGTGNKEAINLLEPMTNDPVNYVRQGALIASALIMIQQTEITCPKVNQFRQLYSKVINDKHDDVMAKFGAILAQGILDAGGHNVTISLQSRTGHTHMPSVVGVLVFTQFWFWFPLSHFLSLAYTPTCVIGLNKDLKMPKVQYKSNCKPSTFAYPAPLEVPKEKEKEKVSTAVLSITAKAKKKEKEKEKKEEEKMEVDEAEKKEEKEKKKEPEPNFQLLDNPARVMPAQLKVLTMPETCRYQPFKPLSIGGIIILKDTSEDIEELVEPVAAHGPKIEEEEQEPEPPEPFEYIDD

[11] = target: T11, HeLa cell extract proteins (Homo sapiens, UniProt Q9UI30)
T11 construct: endogenous in cells; host or cells: HeLa cell extract
T11 sequence (Q9UI30 1-125): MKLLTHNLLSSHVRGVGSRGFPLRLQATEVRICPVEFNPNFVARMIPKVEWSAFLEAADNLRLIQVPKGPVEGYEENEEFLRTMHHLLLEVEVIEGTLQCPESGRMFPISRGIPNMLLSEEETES

[12] = HeLa, protein SET (ISOFORM 1 OF PROTEIN SET.)
[13] = HeLa, protein PDHX (PYRUVATE DEH[…] X COMPONENT, MIT[…])
[14] = HeLa, protein EEF1E1 (EUKARYOTIC TRANSLATION ELONGATION FACTOR 1 EPSILON-1)

SMILES | fold changes relative to vehicle control ([1]; protein PDHX, HeLa) | fold changes relative to vehicle control ([2]; protein EEF1E1, HeLa) | fold changes relative to vehicle control ([3]; protein EEF1G, HeLa) | fold changes relative to vehicle control ([4]; protein MCM4, HeLa) | fold changes relative to vehicle control ([5]; protein PPP2R2A, HeLa) | fold changes relative to vehicle control [6, 12] | fold changes relative to vehicle control ([7]; protein ACACA, HeLa) | fold changes relative to vehicle control ([8]; captured protein TTC27, HeLa) | fold changes relative to vehicle control ([9]; captured protein WDR82, HeLa) | fold changes relative to vehicle control ([10]; protein PSMD1, HeLa) | fold changes relative to vehicle control ([11]; HeLa, protein HSPC152) | fold changes relative to vehicle control ([3]; HeLa, protein EEF1G) | fold changes relative to vehicle control ([5]; HeLa, captured protein PPP2R2A) | fold changes relative to vehicle control ([6]; HeLa, captured protein SET) | fold changes relative to vehicle control ([7]; HeLa, captured protein ACACA) | fold changes relative to vehicle control ([8]; protein TTC27, HeLa) | fold changes relative to vehicle control ([9]; HeLa, captured protein WDR82) | other results
CCCCCCOc1cccc(Cc2cnc(N)nc2N)c1 [compound 2] | 0.43 | 1.19 | 1.67 | 1.59 | 1.05 | 3.28 fold | 1.06 | 0.92 | 1.01 | 1.78 | 1.18 | – | – | – | – | – | – | –
NCCOCCOCC(=O)Nc1nc2ncc(CNc3ccc(C(=O)NC(CCC(=O)O)C(=O)O)cc3)nc2c(=O)[nH]1 (centres unmarked) [compound 6] | – | – | – | 1.08 | – | – | – | – | – | 1.08 | 1.36 | 1.15 | 0.97 | 1.16 | 1.12 | 0.8 | 0.89 | fold changes relative to vehicle control ([1]; HeLa, protein PDHX (PYRUVATE DEHYDROGENASE PROTEIN X COMPONENT, MITOCHONDRIAL PRECURSOR)): 0.92; fold changes relative to vehicle control [2]: 1.02
CCCCCCOc1ccc(Cc2cnc(N)nc2N)cc1 [compound 1] | 1 | 0.9 | 1.31 | 1.11 | 0.92 | 2.11 fold | 1.09 | 0.94 | 0.75 | 1.3 | 0.96 | – | – | – | – | – | – | –
Nc1nc2c(c(=O)[nH]1)N(C=O)C(CNc1ccc(C(=O)N[C@@H](CCC(=O)O)C(=O)O)cc1)CN2 (some centres unmarked) [LEU, leucovorin] | – | – | – | 0.87 | – | – | – | – | – | 0.88 | 1.17 | 1 | 0.97 | 0.98 | 1.02 | 0.76 | 0.8 | fold changes relative to vehicle control [1, 13]: 1.05; fold changes relative to vehicle control [2, 14]: 0.84
NCCCNc1ccc(C(=O)NC(CCC(=O)O)C(=O)O)cc1 (centres unmarked) [compound 7] | – | – | – | 0.93 | – | – | – | – | – | 1.16 | 1.29 | 0.94 | 0.87 | 0.84 | 1.17 | 0.82 | 0.97 | fold changes relative to vehicle control [1, 13]: 1.02; fold changes relative to vehicle control [2, 14]: 0.98
Nc1nc2[nH]cc(CCc3ccc(C(=O)N[C@@H](CCC(=O)O)C(=O)O)cc3)c2c(=O)[nH]1 [PTX, pemetrexed] | – | – | – | – | – | – | – | – | – | – | – | – | – | – | – | – | – | fold changes relative to vehicle control [1]: 0.98; fold changes relative to vehicle control [2]: 0.89; fold changes relative to vehicle control [3]: 1.05; fold changes relative to vehicle control [4]: 0.96; fold changes relative to vehicle control [5]: 0.97; fold changes relative to vehicle control [6]: 1.08; fold changes relative to vehicle control [7]: 1.05; fold changes relative to vehicle control [8]: 0.74; fold changes relative to vehicle control [9]: 0.72; fold changes relative to vehicle control [10]: 0.99; fold changes relative to vehicle control [11]: 1.21
Nc1nc2cccc(-c3ccccc3)c2n1Cc1ccc(Cl)c(Cl)c1 [compound 3] | 1.12 | 1.12 | 0.94 | 0.9 | 0.99 | 0.9 fold | 1.04 | 0.81 | 0.9 | 1.14 | 1.04 | – | – | – | – | – | – | –
